In ChEMBL document CHEMBL5653615 (J Biol Chem, 2013):

What was measured:
[1] = target: T1, Serine/threonine-protein kinase D3 (Homo sapiens) (UniProt O94806); test: Inhibition of human PRKD3 at 1.82 nM by HotSpot assay relative to control
T1 sequence (whole entry): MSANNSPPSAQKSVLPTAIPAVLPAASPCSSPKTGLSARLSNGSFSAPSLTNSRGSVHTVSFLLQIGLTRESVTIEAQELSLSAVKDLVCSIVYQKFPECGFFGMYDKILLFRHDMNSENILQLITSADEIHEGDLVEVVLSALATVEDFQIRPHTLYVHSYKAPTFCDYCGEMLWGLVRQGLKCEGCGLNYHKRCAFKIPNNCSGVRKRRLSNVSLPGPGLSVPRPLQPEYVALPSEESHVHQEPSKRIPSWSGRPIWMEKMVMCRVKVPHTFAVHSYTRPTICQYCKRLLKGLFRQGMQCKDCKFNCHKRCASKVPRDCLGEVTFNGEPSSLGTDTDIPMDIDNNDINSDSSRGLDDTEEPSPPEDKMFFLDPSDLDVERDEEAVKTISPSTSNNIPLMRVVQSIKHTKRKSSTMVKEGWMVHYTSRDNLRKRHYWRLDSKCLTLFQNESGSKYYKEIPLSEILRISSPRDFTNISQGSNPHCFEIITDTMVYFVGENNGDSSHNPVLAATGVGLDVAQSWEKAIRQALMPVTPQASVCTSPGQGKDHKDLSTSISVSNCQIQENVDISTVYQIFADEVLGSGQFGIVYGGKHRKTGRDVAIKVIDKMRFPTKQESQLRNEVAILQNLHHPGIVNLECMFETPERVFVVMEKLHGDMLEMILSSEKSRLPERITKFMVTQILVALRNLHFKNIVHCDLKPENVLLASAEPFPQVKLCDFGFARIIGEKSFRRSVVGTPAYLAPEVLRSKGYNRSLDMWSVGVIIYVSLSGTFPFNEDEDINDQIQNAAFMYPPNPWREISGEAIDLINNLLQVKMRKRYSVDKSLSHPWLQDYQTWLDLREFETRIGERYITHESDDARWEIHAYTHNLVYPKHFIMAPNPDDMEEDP

[2] = target: Cyclin-dependent kinase 5/CDK5 activator 1 (Homo sapiens) (UniProt Q00535+Q15078); test: Inhibition of human CDK5/p35 at 1.82 nM by HotSpot assay relative to control; type: protein-complex assay
[3] = target: Serine/threonine-protein kinase WNK2 (Homo sapiens) (UniProt Q9Y3S1); test: Inhibition of human WNK2 at 1.82 nM by HotSpot assay relative to control
[4] = target: CDK9/Cyclin K (Homo sapiens) (UniProt P50750+O75909); test: Inhibition of human CDK9/cyclin K at 18.6 nM by HotSpot assay relative to control; type: protein-complex assay
[5] = target: Mitogen-activated protein kinase 8 (Homo sapiens) (UniProt P45983); test: Inhibition of human JNK1 at 18.6 nM by HotSpot assay relative to control
[6] = target: NT-3 growth factor receptor (Homo sapiens) (UniProt Q16288); test: Inhibition of human TRKC at 18.6 nM by HotSpot assay relative to control
[7] = target: T2, Dual specificity tyrosine-phosphorylation-regulated kinase 2 (Homo sapiens) (UniProt Q92630); test: Inhibition of human DYRK2 at 18.6 nM by HotSpot assay relative to control
T2 sequence (whole entry): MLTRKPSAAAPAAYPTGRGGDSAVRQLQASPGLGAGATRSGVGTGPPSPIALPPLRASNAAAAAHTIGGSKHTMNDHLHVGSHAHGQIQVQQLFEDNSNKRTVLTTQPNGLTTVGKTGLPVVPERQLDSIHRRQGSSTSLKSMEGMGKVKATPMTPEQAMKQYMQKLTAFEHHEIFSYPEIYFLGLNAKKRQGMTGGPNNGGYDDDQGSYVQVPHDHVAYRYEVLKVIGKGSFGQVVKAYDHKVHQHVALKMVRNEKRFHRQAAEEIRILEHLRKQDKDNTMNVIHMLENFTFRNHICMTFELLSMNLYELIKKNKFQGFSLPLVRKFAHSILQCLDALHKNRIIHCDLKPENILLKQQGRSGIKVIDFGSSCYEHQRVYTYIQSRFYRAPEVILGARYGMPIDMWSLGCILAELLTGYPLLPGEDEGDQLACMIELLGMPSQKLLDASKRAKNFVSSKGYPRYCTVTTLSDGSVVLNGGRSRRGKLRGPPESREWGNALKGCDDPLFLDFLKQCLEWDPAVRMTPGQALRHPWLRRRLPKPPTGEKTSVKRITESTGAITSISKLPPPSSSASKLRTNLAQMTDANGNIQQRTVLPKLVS

[8] = target: T3, Serine/threonine-protein kinase 17A (Homo sapiens) (UniProt Q9UEE5); test: Inhibition of human DRAK1 at 18.6 nM by HotSpot assay relative to control
T3 sequence (whole entry): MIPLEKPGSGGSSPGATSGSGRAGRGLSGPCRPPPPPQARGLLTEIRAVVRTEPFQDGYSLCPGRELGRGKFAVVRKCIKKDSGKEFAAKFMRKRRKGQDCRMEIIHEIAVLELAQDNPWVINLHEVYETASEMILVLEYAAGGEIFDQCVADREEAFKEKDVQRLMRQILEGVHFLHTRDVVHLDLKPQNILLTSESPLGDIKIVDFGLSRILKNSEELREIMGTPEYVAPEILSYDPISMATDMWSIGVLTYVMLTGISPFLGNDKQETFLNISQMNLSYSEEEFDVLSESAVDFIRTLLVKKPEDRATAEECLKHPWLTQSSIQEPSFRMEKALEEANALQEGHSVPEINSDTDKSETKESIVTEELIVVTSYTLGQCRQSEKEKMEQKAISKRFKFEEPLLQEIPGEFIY

[9] = target: T4, Protein kinase C iota type (Homo sapiens) (UniProt P41743); test: Inhibition of human PKCiota at 18.6 nM by HotSpot assay relative to control
T4 sequence (whole entry): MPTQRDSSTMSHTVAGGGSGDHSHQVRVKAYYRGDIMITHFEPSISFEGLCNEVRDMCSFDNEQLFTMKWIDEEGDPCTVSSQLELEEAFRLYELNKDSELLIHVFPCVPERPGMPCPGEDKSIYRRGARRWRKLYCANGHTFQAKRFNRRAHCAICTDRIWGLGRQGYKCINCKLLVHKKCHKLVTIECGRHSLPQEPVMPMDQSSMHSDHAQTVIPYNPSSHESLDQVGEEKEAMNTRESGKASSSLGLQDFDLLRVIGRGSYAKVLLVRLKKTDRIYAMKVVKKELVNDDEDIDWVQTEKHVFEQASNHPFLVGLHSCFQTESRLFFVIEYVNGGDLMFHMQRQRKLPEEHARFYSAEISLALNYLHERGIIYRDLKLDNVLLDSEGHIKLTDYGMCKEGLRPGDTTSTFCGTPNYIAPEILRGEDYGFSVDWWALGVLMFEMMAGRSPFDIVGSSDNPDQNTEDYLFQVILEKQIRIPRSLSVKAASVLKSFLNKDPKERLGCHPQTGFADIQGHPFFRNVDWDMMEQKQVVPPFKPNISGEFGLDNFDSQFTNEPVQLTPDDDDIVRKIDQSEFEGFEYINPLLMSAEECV

Cyclin-dependent kinase 5/CDK5 activator 1 (Homo sapiens), sequence (Q00535 whole entry): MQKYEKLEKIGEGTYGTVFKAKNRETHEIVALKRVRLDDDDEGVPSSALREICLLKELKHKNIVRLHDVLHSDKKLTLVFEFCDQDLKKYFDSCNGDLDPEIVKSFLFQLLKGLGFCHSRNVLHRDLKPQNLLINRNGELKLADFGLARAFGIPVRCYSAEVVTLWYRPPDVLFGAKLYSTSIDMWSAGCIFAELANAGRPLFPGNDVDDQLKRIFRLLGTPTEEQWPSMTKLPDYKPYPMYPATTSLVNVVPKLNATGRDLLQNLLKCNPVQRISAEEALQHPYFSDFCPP
Cyclin-dependent kinase 5/CDK5 activator 1 (Homo sapiens), sequence (Q15078 99-307 partner limits assumed): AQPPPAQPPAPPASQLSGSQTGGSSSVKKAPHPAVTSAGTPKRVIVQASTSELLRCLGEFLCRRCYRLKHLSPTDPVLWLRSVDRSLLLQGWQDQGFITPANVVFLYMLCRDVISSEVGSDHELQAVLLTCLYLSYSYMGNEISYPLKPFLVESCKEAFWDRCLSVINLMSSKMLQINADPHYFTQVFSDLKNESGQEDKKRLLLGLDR
Mitogen-activated protein kinase 8 (Homo sapiens), sequence (P45983 whole entry): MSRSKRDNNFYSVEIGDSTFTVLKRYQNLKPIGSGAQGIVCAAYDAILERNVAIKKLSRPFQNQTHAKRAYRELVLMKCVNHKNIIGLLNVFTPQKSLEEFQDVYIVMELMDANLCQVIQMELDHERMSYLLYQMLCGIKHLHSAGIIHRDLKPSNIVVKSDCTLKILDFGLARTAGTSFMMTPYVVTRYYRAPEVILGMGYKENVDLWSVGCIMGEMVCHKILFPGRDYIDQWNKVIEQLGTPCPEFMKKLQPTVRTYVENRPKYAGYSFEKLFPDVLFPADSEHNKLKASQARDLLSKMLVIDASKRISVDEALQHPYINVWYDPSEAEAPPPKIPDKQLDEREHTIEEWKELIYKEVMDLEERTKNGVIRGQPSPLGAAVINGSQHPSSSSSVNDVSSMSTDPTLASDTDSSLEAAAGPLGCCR
Serine/threonine-protein kinase WNK2 (Homo sapiens), sequence (Q9Y3S1 whole entry): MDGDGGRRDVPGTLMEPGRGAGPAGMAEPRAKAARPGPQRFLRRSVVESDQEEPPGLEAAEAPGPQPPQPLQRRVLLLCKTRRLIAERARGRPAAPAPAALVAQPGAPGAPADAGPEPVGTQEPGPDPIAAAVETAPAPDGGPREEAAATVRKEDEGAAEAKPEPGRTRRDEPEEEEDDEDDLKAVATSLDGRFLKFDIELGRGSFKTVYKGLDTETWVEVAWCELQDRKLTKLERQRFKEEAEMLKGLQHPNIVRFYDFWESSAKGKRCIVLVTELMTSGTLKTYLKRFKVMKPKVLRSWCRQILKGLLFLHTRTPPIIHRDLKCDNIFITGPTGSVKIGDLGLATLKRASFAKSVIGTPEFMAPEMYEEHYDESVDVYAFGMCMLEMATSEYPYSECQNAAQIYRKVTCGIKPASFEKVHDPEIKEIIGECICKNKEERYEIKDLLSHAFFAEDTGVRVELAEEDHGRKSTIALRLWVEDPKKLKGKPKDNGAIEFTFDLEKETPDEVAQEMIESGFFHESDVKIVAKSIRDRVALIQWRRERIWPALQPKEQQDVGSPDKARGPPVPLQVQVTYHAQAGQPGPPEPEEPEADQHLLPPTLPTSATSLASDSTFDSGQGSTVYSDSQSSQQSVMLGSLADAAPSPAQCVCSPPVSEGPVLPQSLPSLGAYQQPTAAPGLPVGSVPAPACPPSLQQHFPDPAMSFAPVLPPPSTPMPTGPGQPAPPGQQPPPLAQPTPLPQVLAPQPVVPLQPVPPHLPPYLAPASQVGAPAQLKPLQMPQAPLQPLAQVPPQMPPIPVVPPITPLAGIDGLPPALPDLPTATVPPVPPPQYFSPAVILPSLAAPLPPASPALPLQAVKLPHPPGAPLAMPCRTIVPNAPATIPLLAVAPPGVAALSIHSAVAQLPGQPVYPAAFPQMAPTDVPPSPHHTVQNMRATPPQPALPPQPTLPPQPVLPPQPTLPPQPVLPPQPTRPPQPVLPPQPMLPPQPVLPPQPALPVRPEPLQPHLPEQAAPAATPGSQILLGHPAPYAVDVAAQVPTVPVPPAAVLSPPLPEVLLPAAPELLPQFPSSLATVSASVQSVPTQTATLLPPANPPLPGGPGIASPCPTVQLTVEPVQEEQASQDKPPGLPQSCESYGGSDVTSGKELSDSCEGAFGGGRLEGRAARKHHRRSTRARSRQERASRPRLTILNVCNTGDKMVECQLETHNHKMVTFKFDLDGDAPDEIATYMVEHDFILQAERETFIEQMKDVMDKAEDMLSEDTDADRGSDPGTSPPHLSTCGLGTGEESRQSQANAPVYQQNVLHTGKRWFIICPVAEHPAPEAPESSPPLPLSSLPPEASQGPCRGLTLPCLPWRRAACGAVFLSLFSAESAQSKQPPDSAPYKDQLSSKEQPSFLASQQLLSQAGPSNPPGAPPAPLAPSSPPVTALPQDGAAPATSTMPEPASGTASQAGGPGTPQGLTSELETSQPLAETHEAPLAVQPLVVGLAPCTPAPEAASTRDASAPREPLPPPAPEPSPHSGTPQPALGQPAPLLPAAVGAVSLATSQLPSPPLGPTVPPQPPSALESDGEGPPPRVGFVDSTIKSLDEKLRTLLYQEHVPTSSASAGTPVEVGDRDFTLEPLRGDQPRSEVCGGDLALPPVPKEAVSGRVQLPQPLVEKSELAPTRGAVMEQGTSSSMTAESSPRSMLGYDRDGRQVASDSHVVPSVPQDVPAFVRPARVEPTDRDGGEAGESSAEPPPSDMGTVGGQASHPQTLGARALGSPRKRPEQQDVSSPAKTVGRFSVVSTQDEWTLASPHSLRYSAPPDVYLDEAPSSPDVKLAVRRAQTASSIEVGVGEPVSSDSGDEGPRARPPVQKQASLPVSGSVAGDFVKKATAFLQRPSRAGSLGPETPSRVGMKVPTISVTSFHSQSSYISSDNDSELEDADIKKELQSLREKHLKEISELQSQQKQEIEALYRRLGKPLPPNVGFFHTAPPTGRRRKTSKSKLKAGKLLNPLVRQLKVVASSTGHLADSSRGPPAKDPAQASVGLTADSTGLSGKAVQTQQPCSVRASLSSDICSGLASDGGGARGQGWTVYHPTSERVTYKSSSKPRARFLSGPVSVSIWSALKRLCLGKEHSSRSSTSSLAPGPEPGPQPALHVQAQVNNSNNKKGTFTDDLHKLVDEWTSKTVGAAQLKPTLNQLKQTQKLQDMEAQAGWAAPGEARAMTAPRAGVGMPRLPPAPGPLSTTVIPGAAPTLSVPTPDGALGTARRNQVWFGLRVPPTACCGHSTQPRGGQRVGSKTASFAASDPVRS
NT-3 growth factor receptor (Homo sapiens), sequence (Q16288 32-839 limits assumed): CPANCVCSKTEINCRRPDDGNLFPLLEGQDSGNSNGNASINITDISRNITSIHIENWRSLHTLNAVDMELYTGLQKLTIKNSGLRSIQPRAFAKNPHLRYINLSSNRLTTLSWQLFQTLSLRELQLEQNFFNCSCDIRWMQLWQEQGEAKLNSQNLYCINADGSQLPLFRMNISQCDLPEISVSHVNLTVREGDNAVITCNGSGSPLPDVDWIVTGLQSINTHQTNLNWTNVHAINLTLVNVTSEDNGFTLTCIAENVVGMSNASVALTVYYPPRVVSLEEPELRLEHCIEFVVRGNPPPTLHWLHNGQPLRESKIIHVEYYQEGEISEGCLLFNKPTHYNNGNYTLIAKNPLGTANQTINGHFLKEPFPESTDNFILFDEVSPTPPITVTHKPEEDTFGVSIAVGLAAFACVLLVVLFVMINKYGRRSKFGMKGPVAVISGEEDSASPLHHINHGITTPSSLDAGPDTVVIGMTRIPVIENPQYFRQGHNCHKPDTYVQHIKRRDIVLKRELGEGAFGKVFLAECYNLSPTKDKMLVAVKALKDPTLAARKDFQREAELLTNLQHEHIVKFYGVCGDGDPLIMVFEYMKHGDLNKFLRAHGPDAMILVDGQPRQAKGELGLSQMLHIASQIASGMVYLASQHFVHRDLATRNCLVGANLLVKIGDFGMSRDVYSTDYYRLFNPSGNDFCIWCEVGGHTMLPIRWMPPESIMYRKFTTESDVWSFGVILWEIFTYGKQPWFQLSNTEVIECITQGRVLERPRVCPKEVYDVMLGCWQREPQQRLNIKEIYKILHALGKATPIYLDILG

| Compound | inhibition [1] | inhibition [2] | inhibition [3] | inhibition [4] | inhibition [5] | inhibition [6] | inhibition [7] | inhibition [8] | inhibition [9] |
| --- | --- | --- | --- | --- | --- | --- | --- | --- | --- |
| C[C@@]1(C(=O)Nc2ccc(F)nc2)CCCN1c1nc(Nc2cc(C3CC3)n[nH]2)c2cccn2n1 | 2.81% | 1.01% | -1.14% | – | – | – | – | – | – |
| C[C@]1(O)C[C@@H](c2nc(-c3ccc4ccc(-c5ccccc5)nc4c3)c3c(N)nccn32)C1 | – | – | – | 1.45% | -1.1% | 0.03% | -1.48% | 0.05% | -2.19% |
